Measurements taken from patent publication US20230083012A1, “DIHYDROPYRIMIDINE DERIVATIVES AND USES THEREOF IN THE TREATMENT OF HBV INFECTION OR OF HBV-INDUCED DISEASES” (priority 2019, published 2023).

Key:
[1] = Cytotoxicity determination in HepG2.2.15 cells (CCK-8 cell viability); type: cell-based; conditions: human, 6 days treatment, CCK-8 assay, highest concentration 100 uM
Summary of the method: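 HepG2.2.15 cells seeded at 5,000 cells/well in 2% FBS medium, exposed 6 days to compounds (8-point 1:3 dilutions from 100 uM, triplicate), refreshed at day 3. Viability read by CCK-8 after 2.5 h at 37° C, absorbance 450 nm with 630 nm reference; CC50 calculated.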

HBV = test: Anti-HBV activity in HepG2.2.15 cells (HBV DNA in culture medium by qPCR); type: cell-based; conditions: Hepatitis B virus, HepG2.2.15, 144 h, HepG2.2.15 cells, 6 days treatment, HBV DNA in culture medium quantified by real-time PCR; read-out: EC50
Summary of the method: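 HepG2.2.15 cells in 2% FBS medium at 37 °C were treated with compounds for 6 days, with medium and compound refreshed at day 3; 1:3 dilutions, 8 concentrations in triplicate, top 10 or 1 uM. HBV DNA in culture medium quantified by qPCR to derive EC50; CC50 from parallel plates (top 100 uM).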

SMILES	CC50 at 6 days [1]	EC50 (HBV)
CCOC(=O)C1=C(CN2CC(F)(F)C3CN(C(=O)C(C)(C)C(=O)O)CC32)NC(c2nccs2)=N[C@H]1c1cccc(F)c1C (stereo in doubt) [Compound 9, (cis)-3-(1-(((S)-5-(Ethoxycarbonyl)-6-(3-fluoro-2-methylphenyl)-2-(thiazol-2-yl)-3,6-dihydropyrimidin-4-yl)methyl)-3,3-difluorohexahydropyrrolo[3,4-b]pyrrol-5(1H)-yl)-2,2-dimethyl-3-oxopropanoic acid]	76300 nM	41.7 nM
CCOC(=O)C1=C(CN2CC(F)(F)C3[C@@H]2CCN3C2CC(C)(C(=O)O)C2)NC(c2nccs2)=N[C@H]1c1cccc(F)c1C (single isomer, unassigned) [Compound 112]	28600 nM	5.3 nM
CCOC(=O)C1=C(CN2CC(F)(F)[C@H]3[C@@H]2CC(=O)N3[C@H]2CC[C@@H](C(=O)O)CC2)NC(c2nccs2)=N[C@H]1c1cccc(F)c1C (single isomer, unassigned) [Compound 158A]	27900 nM	53.1 nM
CCOC(=O)C1=C(CN2CC(F)(F)[C@H]3[C@@H]2CCN3[C@H](C)C(=O)O)NC(c2nccs2)=N[C@H]1c1cccc(F)c1C (single isomer, unassigned) [Compound 26E]	28100 nM	5.2 nM
CCOC(=O)C1=C(CN2CC(F)C3C(=O)N(CC(C)(C)C(=O)O)CC32)NC(c2nccs2)=N[C@H]1c1cccc(F)c1C (stereo partly drawn) [Compound 186, 3-((cis)-1-(((S)-5-(ethoxycarbonyl)-6-(3-fluoro-2-methylphenyl)-2-(thiazol-2-yl)-3,6-dihydropyrimidin-4-yl)methyl)-3-fluoro-4-oxohexahydropyrrolo[3,4-b]pyrrol-5(1H)-yl)-2,2-dimethylpropanoic acid]	66900 nM	8.9 nM
[2H]C([2H])([2H])N1C[C@@H]2[C@H](N1CCC(C)(C)C(=O)O)C(F)(F)CN2CC1=C(C(=O)OCC)[C@H](c2cccc(F)c2C)N=C(c2nccs2)N1 (single isomer, unassigned) [Compound 100]	12000 nM	11 nM
CCOC(=O)C1=C(CN2CC(F)(F)[C@@H]3C(=O)N(CC4(C(=O)O)CCCC4)C[C@@H]32)NC(c2nccs2)=N[C@H]1c1cccc(F)c1C (single isomer, unassigned) [Compound 199]	35900 nM	11.8 nM
CCOC(=O)C1=C(CN2CC(F)(F)[C@H]3[C@@H]2CCN3c2ncc(C(=O)O)cn2)NC(c2nccs2)=N[C@H]1c1cccc(F)c1C (single isomer, unassigned) [Compound 150]	15000 nM	57 nM
CCOC(=O)C1=C(CN2CC(F)(F)[C@@H]3[C@H]2CN(C)N3CCOC(C)(C)C(=O)O)NC(c2nccs2)=N[C@H]1c1cccc(F)c1C (single isomer, unassigned) [Compound 99]	25000 nM	155 nM
CCOC(=O)C1=C(CN2CC(F)(F)[C@@H]3[C@H]2CN(C)N3CC(C)(C)C(=O)O)NC(c2nccs2)=N[C@@H]1c1ccc(F)nc1C (single isomer, unassigned) [Compound 97]	> 100000 nM	77 nM
CCOC(=O)C1=C(CN2CC(F)(F)[C@@H]3CN(S(=O)(=O)[C@H]4C[C@](C)(C(=O)O)C4)C[C@@H]32)NC(c2nccs2)=N[C@H]1c1cccc(F)c1C (single isomer, unassigned) [Compound 205A]	> 50000 nM	114 nM
CCOC(=O)C1=C(CN2CC(F)(F)[C@@H]3CN(C(=O)C(C)(C)C(=O)O)C[C@@H]32)NC(c2nccs2)=N[C@H]1c1cccc(F)c1Cl (single isomer, unassigned) [Compound 207, 3-((cis)-1-((6-(2-chloro-3-fluorophenyl)-5-(ethoxycarbonyl)-2-(thiazol-2-yl)-3,6-dihydropyrimidin-4-yl)methyl)-3,3-difluorohexahydropyrrolo[3,4-b]pyrrol-5(1H)-yl)-2,2-dimethyl-3-oxopropanoic acid]	> 50000 nM	59 nM
COC(=O)C1=C(CN2CC(F)(F)[C@H]3[C@@H]2CN(C(C)=O)N3CCC(C)(C)C(=O)O)NC(c2nccs2)=N[C@H]1c1ccc(F)c(F)c1Cl (single isomer, unassigned) [Compound 79B, 4-((cis)-2-acetyl-4-((6-(2-chloro-3,4-difluorophenyl)-5-(methoxycarbonyl)-2-(thiazol-2-yl)-3,6-dihydropyrimidin-4-yl)methyl)-6,6-difluorohexahydropyrrolo[3,2-c]pyrazol-1(2H)-yl)-2,2-dimethylbutanoic acid]	54900 nM	27 nM
CCOC(=O)C1=C(CN2CC(F)(F)[C@H]3CN([C@H]4C[C@@H](C(=O)O)C4)C[C@H]32)NC(c2nccs2)=N[C@H]1c1cccc(F)c1C (single isomer, unassigned) [Compound 18B]	64200 nM	73.7 nM
CCOC(=O)C1=C(CN2CC(F)(F)[C@@H]3[C@H]2CON3CCC(C)(C)C(=O)O)NC(c2nccs2)=N[C@H]1c1cccc(F)c1C (relative stereo) [Compound 69A, 4-(4-(((S)-5-(ethoxycarbonyl)-6-(3-fluoro-2-methylphenyl)-2-(thiazol-2-yl)-3,6-dihydropyrimidin-4-yl)methyl)-6,6-difluorohexahydro-1H-pyrrolo[3,2-c]isoxazol-1-yl)-2,2-dimethylbutanoic acid]	37000 nM	0.7 nM
CCOC(=O)C1=C(CN2C[C@@H](F)[C@@]3(F)C(=O)N(CC(C)(C)C(=O)O)C[C@@H]23)NC(c2nccs2)=N[C@H]1c1cccc(F)c1C (single isomer, unassigned) [Compound 204A]	88900 nM	11.2 nM
CCOC(=O)C1=C(CN2CC(F)(F)[C@@H]3CN(CC(C)(C)C(=O)O)C[C@@H]32)NC(c2nccs2)=N[C@@H]1c1ccc(F)nc1C (single isomer, unassigned) [Compound 201, 3-((cis)-1-((5-(ethoxycarbonyl)-6-(6-fluoro-2-methylpyridin-3-yl)-2-(thiazol-2-yl)-3,6-dihydropyrimidin-4-yl)methyl)-3,3-difluorohexahydropyrrolo[3,4-b]pyrrol-5(1H)-yl)-2,2-dimethylpropanoic acid]	> 100000 nM	72.6 nM
CCOC(=O)C1=C(CN2CC(F)(F)[C@@H]3[C@H]2CON3CCC(C)(C)C(=O)O)NC(c2nccs2)=N[C@@H]1c1ccc(F)nc1C (single isomer, unassigned) [Compound 166, 4-((cis)-4-((5-(ethoxycarbonyl)-6-(6-fluoro-2-methylpyridin-3-yl)-2-(thiazol-2-yl)-3,6-dihydropyrimidin-4-yl)methyl)-6,6-difluorohexahydro-1H-pyrrolo[3,2-c]isoxazol-1-yl)-2,2-dimethylbutanoic acid]	> 100000 nM	59 nM
CCOC(=O)C1=C(CN2CC(F)(F)[C@@H]3CN(S(=O)(=O)CC(C)(C)C(=O)O)C[C@@H]32)NC(c2nccs2)=N[C@H]1c1cccc(F)c1C (single isomer, unassigned) [Compound 46]	20900 nM	39.4 nM
CCOC(=O)C1=C(CN2CC(F)(F)[C@@H]3[C@H]2CON3CCC(C)(C)C(=O)O)NC(c2nc(C)cs2)=N[C@H]1c1ccc(F)c(F)c1F (single isomer, unassigned) [Compound 174, 4-((cis)-4-((5-(ethoxycarbonyl)-2-(4-methylthiazol-2-yl)-6-(2,3,4-trifluorophenyl)-3,6-dihydropyrimidin-4-yl)methyl)-6,6-difluorohexahydro-1H-pyrrolo[3,2-c]isoxazol-1-yl)-2,2-dimethylbutanoic acid]	> 50000 nM	15 nM
CCOC(=O)C1=C(CN2CC(F)(F)[C@@H]3CN(C(=O)[C@H]4C[C@@H](C(=O)O)C4)C[C@@H]32)NC(c2nccs2)=N[C@H]1c1cccc(F)c1C (single isomer, unassigned) [Compound 56B]	> 100000 nM	79.2 nM
CCOC(=O)C1=C(CN2CC(F)(F)[C@H]3[C@@H]2CCN3CC(=O)NS(C)(=O)=O)NC(c2nccs2)=N[C@H]1c1cccc(F)c1C (single isomer, unassigned) [Compound 8A]	36300 nM	6.9 nM
CCOC(=O)C1=C(CN2CC(F)(F)[C@H]3[C@@H]2CCN3CCOC(C)C(=O)O)NC(c2nccs2)=N[C@H]1c1cccc(F)c1C (single isomer, unassigned) [Compound 148]	34100 nM	7.3 nM
CCOC(=O)C1=C(CN2CC(F)(F)[C@H]3[C@@H]2CCN3CC(C)(C)C(=O)O)NC(c2nccs2)=N[C@@H]1c1ccc(F)nc1C (single isomer, unassigned) [Compound 159, 3-((cis)-4-((5-(ethoxycarbonyl)-6-(6-fluoro-2-methylpyridin-3-yl)-2-(thiazol-2-yl)-3,6-dihydropyrimidin-4-yl)methyl)-6,6-difluorohexahydropyrrolo[3,2-b]pyrrol-1(2H)-yl)-2,2-dimethylpropanoic acid]	75700 nM	0.6 nM
CCOC(=O)C1=C(CN2CC(F)(F)[C@H]3[C@@H]2CCN3CCC(C)(C)C(=O)O)NC(c2nccn2C)=N[C@H]1c1cccc(F)c1C (single isomer, unassigned) [Compound 146, 4-((cis)-4-((5-(Ethoxycarbonyl)-6-(3-fluoro-2-methylphenyl)-2-(1-methyl-1H-imidazol-2-yl)-3,6-dihydropyrimidin-4-yl)methyl)-6,6-difluorohexahydropyrrolo[3,2-b]pyrrol-1(2H)-yl)-2,2-dimethylbutanoic acid]	32200 nM	13.1 nM
CCOC(=O)C1=C(CN2CC(F)(F)[C@@H]3CN(C(=O)C(C)(C)C(=O)O)C[C@@H]32)NC(c2nccs2)=N[C@H]1c1cccc(F)c1C (single isomer, unassigned) [Compound 9A]	57800 nM	11.1 nM
